These results are taken from US9115092B2, “Substituted quinazoline and pyrido-pyrimidine derivatives” (Asana Biosciences, LLC, priority 2010, dated 2015).

Where only a bound is given, the exact number is not on record here.

The target of one experiment is T1, mTOR kinase (Homo sapiens, UniProt P42345).
T1 construct: purchased Millipore, USA
The experiment can be described thus: mTOR kinase TR-FRET assay. Type of experiment: biochemical. Particulars: read-out: mTO R. The method, then:
Compound inhibition for mTOR kinase was determined in a homogeneous TR-FRET assay using the Lance® ULight-p70 S6K (Thr 389) peptide (obtained from Perkin-Elmer). The ULight™-labeled synthetic peptide contains the amino acid residues surrounding Thr389 of human p70 S6K. The ULight-p70 S6K peptide is phosphorylated at Thr389 by mTOR. Phosphorylation motif: LGFTYVAP as substrate.
The compound dilution was carried out in 100% DMSO followed by a buffer dilution. The reaction buffer was HEPES (50 mM pH 7.5), EGTA (1 mM), MnCl2 (3 mM). Test compounds at various concentrations were pre-incubated with mTOR (Millipore, USA; 5 ng) for 60 min, and then the Lance® ULight-p70 S6K (Thr 389) peptide (50 nM) was added along with ATP (20 μM). After incubating the reaction mixture for 60 min at room temperature, the kinase reaction was terminated by the addition of EDTA (10 mM) followed by the addition of detection mix, i.e., 1 nM Eu-labeled anti-phospho-substrate antibody (Perkin Elmer, USA). The fluorescence emission at […] was measured upon excitation at 340 nm. IC50 values were subsequently determined using a sigmoidal dose-response curve (variable slope) in GraphPad Prism® 5 software.
Compounds of formula (I) caused inhibition of mTOR kinase activity as determined by this assay.
In general terms: Time-resolved FRET reads energy transfer from a long-lived donor to a nearby acceptor.

In experiment [1] the target is T2, PI3Kα (wild-type), P110/P85α (Homo sapiens, UniProt P42336).
T2 construct: made in house; host or cells: SF9 insect cells
The experiment can be described thus: PI3 Kinase TR-FRET assay, PI3Kα (wild-type). Type of experiment: biochemical. The method, then:
The ability of compounds of the invention to inhibit PI3K activity was determined in a homogeneous TR-FRET assay using a PI3K assay kit (Millipore, USA; cat #33-016) according to manufacturer's instructions. PI3-Kinases (isoforms α, β, γ and δ) catalyze the phosphorylation of phosphatidylinositol, PIP2 to PIP3 in the presence of ATP and Mg^2+. The PIP3 product is detected by displacement of biotin-PIP3 from an energy transfer complex consisting of Europium labeled anti-GST monoclonal antibody, a GST-tagged PH domain, biotinylated PIP3 and Streptavidin-APC. Excitation of Europium in the complex results in an energy transfer to the APC and a fluorescence emission at 665 nm. The PIP3 product displaces biotin-PIP3 from the complex resulting in a loss of energy transfer and thus a decrease in signal.
To test for the ability of compounds to inhibit the activity of PI3Kα (wild-type), exemplary compounds of formula (I) were dissolved in DMSO and directly distributed into 384-well plates at a volume of 0.5 μL. 14.5 μL of P110/P85α/PIP2 mixture in buffer (obtained from the Millipore kit) containing MgCl2 (40 mM) and DTT (5 mM) was added to compound wells and incubated for 60 min at room temperature. P110/P85α was expressed in SF9 insect cells and purified nickel column extraction. Five ng of wild-type P110/P85α was used in the assay. The kinase reaction was started by the addition of ATP. The assay concentrations of both PIP2 and ATP were 10 μM. The reaction mixture was incubated for 30 min at room temperature and was terminated by the addition of stop mix and detection mix. Fluorescence was measured at 615 and 665 nm upon excitation at 340 nm in a Victor™ V5 fluorometer (Perkin Elmer, USA). The fluorescence emission ratio at 665 to 615 nm, proportional to the kinase activity, was plotted against the compound concentration to generate dose-response curves and IC50 values were determined using GraphPad Prism® 5 software.

T2 sequence (P42336 whole entry): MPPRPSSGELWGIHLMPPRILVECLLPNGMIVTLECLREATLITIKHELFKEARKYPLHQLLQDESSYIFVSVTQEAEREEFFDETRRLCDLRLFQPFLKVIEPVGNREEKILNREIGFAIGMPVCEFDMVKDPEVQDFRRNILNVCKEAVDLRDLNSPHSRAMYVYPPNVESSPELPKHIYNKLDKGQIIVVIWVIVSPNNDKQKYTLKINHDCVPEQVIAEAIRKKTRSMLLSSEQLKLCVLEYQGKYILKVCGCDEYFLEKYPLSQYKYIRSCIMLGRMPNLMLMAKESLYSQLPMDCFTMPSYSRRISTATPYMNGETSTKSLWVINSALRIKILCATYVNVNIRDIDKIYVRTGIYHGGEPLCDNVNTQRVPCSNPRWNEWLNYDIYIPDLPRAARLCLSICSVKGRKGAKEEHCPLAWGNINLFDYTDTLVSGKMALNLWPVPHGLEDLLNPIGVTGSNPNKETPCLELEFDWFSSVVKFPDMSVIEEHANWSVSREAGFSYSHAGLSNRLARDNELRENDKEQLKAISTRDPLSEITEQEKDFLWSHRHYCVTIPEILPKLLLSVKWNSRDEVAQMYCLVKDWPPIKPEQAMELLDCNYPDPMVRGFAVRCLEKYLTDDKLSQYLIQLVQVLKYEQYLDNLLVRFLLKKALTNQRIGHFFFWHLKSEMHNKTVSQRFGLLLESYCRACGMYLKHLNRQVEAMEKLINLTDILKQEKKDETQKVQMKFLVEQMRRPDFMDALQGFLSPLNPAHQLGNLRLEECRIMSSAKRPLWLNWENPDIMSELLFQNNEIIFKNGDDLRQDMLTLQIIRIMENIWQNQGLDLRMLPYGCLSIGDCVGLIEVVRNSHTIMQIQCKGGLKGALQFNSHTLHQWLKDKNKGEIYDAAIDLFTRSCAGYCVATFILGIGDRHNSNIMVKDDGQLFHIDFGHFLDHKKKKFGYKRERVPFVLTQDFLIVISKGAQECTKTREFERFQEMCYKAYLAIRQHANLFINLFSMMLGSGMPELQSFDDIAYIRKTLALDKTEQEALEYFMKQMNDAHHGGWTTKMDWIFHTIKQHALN
T2 sequence (P27986 whole entry partner): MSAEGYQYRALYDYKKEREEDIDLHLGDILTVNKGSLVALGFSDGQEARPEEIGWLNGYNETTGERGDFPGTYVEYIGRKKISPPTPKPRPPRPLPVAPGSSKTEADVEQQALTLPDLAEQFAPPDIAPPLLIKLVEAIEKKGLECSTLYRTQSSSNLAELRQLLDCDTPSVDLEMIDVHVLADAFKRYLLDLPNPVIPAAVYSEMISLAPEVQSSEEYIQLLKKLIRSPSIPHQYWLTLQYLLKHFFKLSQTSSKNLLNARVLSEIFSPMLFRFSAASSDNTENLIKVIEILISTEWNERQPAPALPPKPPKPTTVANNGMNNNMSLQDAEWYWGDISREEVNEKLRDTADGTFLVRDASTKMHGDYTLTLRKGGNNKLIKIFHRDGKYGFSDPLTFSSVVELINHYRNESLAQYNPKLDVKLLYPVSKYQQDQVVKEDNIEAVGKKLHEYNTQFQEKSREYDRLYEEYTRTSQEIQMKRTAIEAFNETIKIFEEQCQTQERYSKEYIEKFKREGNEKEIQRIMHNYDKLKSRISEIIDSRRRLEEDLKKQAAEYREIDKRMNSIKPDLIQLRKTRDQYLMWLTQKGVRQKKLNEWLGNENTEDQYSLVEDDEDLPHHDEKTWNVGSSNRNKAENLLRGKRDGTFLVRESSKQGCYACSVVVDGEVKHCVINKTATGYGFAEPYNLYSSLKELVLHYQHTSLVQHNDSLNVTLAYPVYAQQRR

For `Cc1ccc(-c2ccc3c(N4CCOCC4)nc(-c4ccc(NC(=O)Nc5ccc(C(=O)N(C)C)cc5F)cc4)nc3c2)o1` [Example 136, 3-fluoro-N,N-dimethyl-4-(3-(4-(7-(5-methylfuran-2-yl)-4-morpholino-quinazolin-2-yl)phenyl)ureido)-benzamide], the IC50 (at mTOR kinase; in experiment [1]) was 201 to 10000 nM each time.
Turning to `CN(C)C(=O)c1ccc(NC(=O)Nc2ccc(-c3nc(N4CCOCC4)c4ccc(-c5cncnc5)cc4n3)cc2F)c(F)c1` [Example 139, 3-fluoro-4-(3-(2-fluoro-4-(4-morpholino-7-(pyrimidin-5-yl)quinazolin-2-yl)phenyl)ureido)-N,N-dimethyl-benzamide], the IC50 (on mTOR kinase; in experiment [1]) was 201 to 10000 nM each time.
On to `CN(C)C(=O)c1ccc(NC(=O)Nc2ccc(-c3nc(N4CCOCC4)c4ccc(-c5cncnc5)cc4n3)cn2)c(F)c1` [Example 140, 3-fluoro-N,N-dimethyl-4-(3-(5-(4-morpholino-7-(pyrimidin-5-yl)quinazolin-2-yl)pyridin-2-yl)ureido)-benzamide], for which the IC50 was 201 to 10000 nM on mTOR kinase and below 50 nM in experiment [1].
For `CN(C)C(=O)c1ccc(NC(=O)Nc2ccc(-c3nc(N4CCOCC4)c4ncc(-c5cnn(C)c5)cc4n3)cc2F)c(F)c1` [Example 141, 3-fluoro-4-(3-(2-fluoro-4-(7-(1-methyl-1H-pyrazol-4-yl)-4-morpholino-pyrido[3,2-d]pyrimidin-2-yl)phenyl)ureido)-N,N-dimethyl-benzamide], in that order: 50 to 200 nM and 201 to 10000 nM.
For `Cc1ccc(-c2ccc3c(N4CCOC(C)C4)nc(-c4ccc(NC(=O)Nc5ccc(C(=O)N(C)C)cc5)cc4)nc3c2)o1` (centres unmarked) [Example 142, N,N-dimethyl-4-(3-(4-(7-(5-methylfuran-2-yl)-4-(2-methylmorpholino)quinazolin-2-yl)phenyl)ureido)-benzamide], in that order: 50 to 200 nM and 50 to 200 nM.
For `CC1CN(c2nc(-c3ccc(NC(=O)Nc4ccc(C(=O)N(C)C)cc4)c(F)c3)nc3cc(-c4cncnc4)ccc23)CCO1` (centres unmarked) [Example 144, 4-(3-(2-fluoro-4-(4-(2-methylmorpholino)-7-(pyrimidin-5-yl)quinazolin-2-yl)phenyl)ureido)-N,N-dimethyl-benzamide], in that order: below 50 nM and 50 to 200 nM.
Consider `CN(C)C(=O)c1ccc(NC(=O)Nc2ccc(-c3nc(N4CCOCC4)c4ncc(-c5cccnc5F)cc4n3)cc2)c(F)c1` [Example 145, 3-fluoro-4-(3-(4-(7-(2-fluoropyridin-3-yl)-4-morpholino-pyrido[3,2-d]pyrimidin-2-yl)phenyl)ureido)-N,N-dimethyl-benzamide], for which the IC50 (on mTOR kinase; in experiment [1]) was below 50 nM throughout.
As for `CC1CN(c2nc(-c3ccc(NC(=O)Nc4ccc(C(=O)N(C)C)cc4)cc3)nc3cc(-c4cnn(C)c4)cnc23)CCO1` (centres unmarked) [Example 148, N,N-dimethyl-4-(3-(4-(7-(1-methyl-1H-pyrazol-4-yl)-4-(2-methylmorpholino)pyrido[3,2-d]pyrimidin-2-yl)phenyl)ureido)-benzamide], the IC50 (at mTOR kinase; in experiment [1]) was below 50 nM throughout.
`CN(C)C(=O)c1ccc(NC(=O)Nc2ccc(-c3nc(N4CCOCC4)c4cc(F)c(-c5ccco5)cc4n3)cc2)cc1` [Example 149, 4-(3-(4-(6-fluoro-7-(furan-2-yl)-4-morpholino-quinazolin-2-yl)phenyl)ureido)-N,N-dimethyl-benzamide]: the IC50 (on mTOR kinase; in experiment [1]) was 50 to 200 nM each time.
Turning to `CN(C)C(=O)c1ccc(NC(=O)Nc2ccc(-c3nc(N4CCOCC4)c4ccc(-c5cnc(O)nc5)cc4n3)cc2)cc1` [Example 150, 4-(3-(4-(7-(2-hydroxypyrimidin-5-yl)-4-morpholino-quinazolin-2-yl)phenyl)ureido)-N,N-dimethyl-benzamide], the IC50 (at mTOR kinase; in experiment [1]) was below 50 nM each time.
Take `COc1ccc(-c2ccc3c(N4CCOCC4)nc(-c4ccc(NC(=O)Nc5ccc(C(=O)N(C)C)cc5)c(F)c4)nc3c2)cn1` [Example 151, 4-(3-(2-fluoro-4-(7-(6-methoxypyridin-3-yl)-4-morpholino-quinazolin-2-yl)phenyl)ureido)-N,N-dimethyl-benzamide]: the IC50 (on mTOR kinase; in experiment [1]) was 50 to 200 nM each time.
`CN(C)C(=O)c1ccc(NC(=O)Nc2ccc(-c3nc(N4CCOCC4)c4ncc(-c5cccnc5)cc4n3)cc2)c(F)c1` [Example 153, 3-fluoro-N,N-dimethyl-4-(3-(4-(4-morpholino-7-(pyridin-3-yl)pyrido[3,2-d]pyrimidin-2-yl)phenyl)ureido)-benzamide]: the IC50 (at mTOR kinase; in experiment [1]) was below 50 nM in each case.
For the compound `CN(C)C(=O)c1ccc(NC(=O)Nc2ccc(-c3nc(N4CCOCC4)c4ncc(-c5cncnc5)cc4n3)cc2)c(F)c1` [Example 154, 3-fluoro-N,N-dimethyl-4-(3-(4-(4-morpholino-7-(pyrimidin-5-yl)pyrido[3,2-d]pyrimidin-2-yl)phenyl)ureido)-benzamide], the IC50 (on mTOR kinase; in experiment [1]) was below 50 nM throughout.
Take `CN(C)C(=O)c1ccc(NC(=O)Nc2ccc(-c3nc(N4CCOCC4)c4ccc(-c5ccccn5)cc4n3)cc2F)cc1` [Example 156, 4-(3-(2-fluoro-4-(4-morpholino-7-(pyridin-2-yl)quinazolin-2-yl)phenyl)ureido)-N,N-dimethyl-benzamide]: the IC50 (on mTOR kinase; in experiment [1]) was 50 to 200 nM throughout.
Consider `COc1ncc(-c2cnc3c(N4CCOCC4)nc(-c4ccc(NC(=O)Nc5ccc(C(=O)N(C)C)cc5F)cc4)nc3c2)cn1` [Example 157, 3-fluoro-4-(3-(4-(7-(2-methoxypyrimidin-5-yl)-4-morpholino-pyrido[3,2-d]pyrimidin-2-yl)phenyl)ureido)-N,N-dimethyl-benzamide], for which the IC50 (at mTOR kinase; in experiment [1]) was below 50 nM throughout.
As for `CN1CCN(C(=O)c2ccc(NC(=O)Nc3ccc(-c4nc(N5CCOCC5)c5ccc(-c6ccco6)cc5n4)cc3)cc2)CC1` [Example 158, 1-(4-(7-(furan-2-yl)-4-morpholino-quinazolin-2-yl)phenyl)-3-(4-(4-methylpiperazine-1-carbonyl)phenyl)urea], the IC50 was 50 to 200 nM on mTOR kinase and below 50 nM in experiment [1].
For `Cc1ccc(-c2ccc3c(N4CCOCC4)nc(-c4ccc(NC(=O)Nc5ccc(C(=O)N(C)C)cc5)cc4)nc3c2)cn1` [Example 161, N,N-dimethyl-4-(3-(4-(7-(6-methylpyridin-3-yl)-4-morpholino-quinazolin-2-yl)phenyl)ureido)-benzamide], in that order: below 50 nM and below 50 nM.
For `Cc1nn(C)c(C)c1-c1ccc2c(N3CCOCC3)nc(-c3ccc(NC(=O)Nc4ccc(C(=O)N(C)C)cc4)cc3)nc2c1` [Example 162, N,N-dimethyl-4-(3-(4-(4-morpholino-7-(1,3,5-trimethyl-1H-pyrazol-4-yl)quinazolin-2-yl)phenyl)ureido)-benzamide], in that order: below 50 nM and below 50 nM.
As for `COc1ncccc1-c1ccc2c(N3CCOCC3)nc(-c3ccc(NC(=O)Nc4ccc(C(=O)N(C)C)cc4)cc3)nc2c1` [Example 163, 4-(3-(4-(7-(2-methoxypyridin-3-yl)-4-morpholino-quinazolin-2-yl)phenyl)ureido)-N,N-dimethyl-benzamide], the IC50 (on mTOR kinase; in experiment [1]) was below 50 nM in each case.
